Measurements published in PubChem BioAssay (NCI).
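Tested at 5 concentrations; 48 h exposure; 96-well plates; endpoints linearly interpolated, else capped at highest concentration. Definition used: TGI = concentration required for complete inhibition of growth.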

Key:
Assay in all cases: NCI tumour cell line growth inhibition, 48 h
MDA-MB-231 breast = tested on: MDA-MB-231 breast
MDA-MB-435 = tested on: MDA-MB-435
MDA-N = tested on: MDA-N
DLD-1 colon = tested on: DLD-1 colon
XF 498 CNS = tested on: XF 498 CNS
MALME-3M melanoma = tested on: MALME-3M melanoma
HOP-18 NSCLC = tested on: HOP-18 NSCLC
P388 leukemia = tested on: P388 leukemia
P388/ADR leukemia = tested on: P388/ADR leukemia
SN12K1 renal = tested on: SN12K1 renal
RXF-631 renal = tested on: RXF-631 renal

COc1nc(Cl)nc(N[C@H](C)c2c3ccccc3cc3ccccc23)n1
TGI (MDA-MB-231 breast): 34.4 µM
TGI (MDA-MB-435): 15.1 µM
TGI (MDA-N): 8.99 µM

COC1/C=C/C(C)C(O)CC(O)/C=C/C(C)C(C(C)C(OC)C(C)CCC(=O)C(C)C(C/C=C/N(C)C=O)OC)OC(=O)/C=C/C=C(\C)CC(OC)CC2=CC(=O)O[C@@H](C(C)C(OC)C1)[C@H]2O (stereo partly drawn)
TGI (MDA-MB-435): 0.906 µM
TGI (MDA-N): 0.136 µM

N#Cc1ccccc1NC(=O)C(=O)C(C(=O)c1ccccc1F)C1OC(=O)c2ccccc21 (stereo not drawn)
TGI (DLD-1 colon): > 100 µM
TGI (XF 498 CNS): > 100 µM

C[C@H]1S[C@@H](c2ccc(Cl)cc2Cl)N(NC(=O)c2ccncc2)C1=O
TGI (MALME-3M melanoma): > 100 µM
TGI (MDA-MB-231 breast): > 100 µM
TGI (MDA-MB-435): > 100 µM

C=CCC(O[Si](C)(C)C(C)(C)C)c1cc(O[Si](C)(C)C(C)(C)C)ccc1OC (stereo not drawn)
TGI (DLD-1 colon): > 100 µM
TGI (HOP-18 NSCLC): > 100 µM
TGI (MALME-3M melanoma): > 100 µM
TGI (P388 leukemia): > 100 µM
TGI (P388/ADR leukemia): > 100 µM
TGI (SN12K1 renal): > 100 µM
TGI (XF 498 CNS): > 100 µM

CCOc1ccc2nc(NC(=O)C(=O)C(C(=O)c3ccccc3F)C3OC(=O)c4ccccc43)sc2c1 (stereo not drawn)
TGI (DLD-1 colon): > 100 µM
TGI (RXF-631 renal): 70.1 µM
TGI (XF 498 CNS): 46.2 µM

COc1ccccc1NC(=O)C(=O)C(C(=O)c1ccccc1F)C1OC(=O)c2ccccc21 (stereo not drawn)
TGI (DLD-1 colon): > 100 µM
TGI (RXF-631 renal): 67.8 µM
TGI (XF 498 CNS): > 100 µM
